Results published in ChEMBL document CHEMBL4145540 (Eur J Med Chem, 2018).
Calls of active or inactive are those of the source. The rule behind the calls is not given here.

Key:
[1] = tested on: HL-60; test: Antiproliferative activity against human HL60 cells after 2 days by MTT assay; format: functional, cell-based; conditions: HL-60, 48 h
[2] = tested on: A549; test: Cell cycle arrest in human A549 cells assessed as accumulation at G2/M phase at 55 nM after 20 hrs by propidium iodide staining based flow cytometry (reference value: 11 +/- 1%); format: functional
[3] = tested on: A549; test: Disruption of microtubule network in human A549 cells assessed as appearance of tubulin aggregates at 220 nM after 16 hrs by Hoechst staining based immunofluorescence assay; format: cell-based
[4] = tested on: MDA-MB-231; test: Antiproliferative activity against human MDA-MB-231 cells after 3 days by coulter counting method; format: functional, cell-based; conditions: MDA-MB-231, 72 h
[5] = tested on: HeLa; test: Antiproliferative activity against human HeLa cells after 2 days by MTT assay; format: functional, cell-based; conditions: 48 h
[6] = tested on: MCF7; test: Antiproliferative activity against human MCF7 cells after 2 days by MTT assay; format: functional, cell-based; conditions: MCF7, 48 h
[7] = tested on: A549; test: Cell cycle arrest in human A549 cells assessed as accumulation at G0/G1 phase at 55 nM after 20 hrs by propidium iodide staining based flow cytometry (reference value: 66 +/- 1%); format: functional
[8] = tested on: A549; test: Cell cycle arrest in human A549 cells assessed as accumulation at S phase at 55 nM after 20 hrs by propidium iodide staining based flow cytometry (reference value: 16 +/- 1%); format: functional
[9] = tested on: A549; test: Disruption of microtubule network in human A549 cells assessed as appearance of compressed and fragmented nuclei at 220 nM after 16 hrs by Hoechst staining based immunofluorescence assay; format: cell-based
[10] = tested on: A549; test: Cell cycle arrest in human A549 cells assessed as accumulation at sub-G0 phase at 55 nM after 20 hrs by propidium iodide staining based flow cytometry (reference value: 6.6 +/- 0.1%); format: functional
[11] = tested on: HMEC-1; test: Antiproliferative activity against HMEC1 cells after 2 days by MTT assay; format: functional, cell-based; conditions: Homo sapiens, HMEC-1, 48 h
[12] = tested on: HT-29; test: Antiproliferative activity against human HT-29 cells after 2 days by MTT assay; format: functional, cell-based; conditions: HT-29, 48 h
[13] = tested on: A549; test: Antiproliferative activity against human A549 cells after 2 days by MTT assay; format: functional, cell-based; conditions: A549, 48 h
[14] = tested on: HEK293; test: Antiproliferative activity against HEK293 cells after 2 days by MTT assay; format: cell-based; conditions: Homo sapiens, HEK293, 48 h
[15] = tested on: A549; test: Cell cycle arrest in human A549 cells assessed as accumulation at sub-G0 phase at 275 nM after 20 hrs by propidium iodide staining based flow cytometry (reference value: 6.6 +/- 0.1%); format: functional
[16] = tested on: A549; test: Cell cycle arrest in human A549 cells assessed as accumulation at S phase at 275 nM after 20 hrs by propidium iodide staining based flow cytometry (reference value: 16 +/- 1%); format: functional
[17] = tested on: A549; test: Cell cycle arrest in human A549 cells assessed as accumulation at G2/M phase at 275 nM after 20 hrs by propidium iodide staining based flow cytometry (reference value: 11 +/- 1%); format: functional
[18] = tested on: MDA-MB-231; test: Inhibition of EBI binding to beta-tubulin colchicine binding site in human MDA-MB-231 cells at 10 uM preincubated for 16 hrs followed by EBI addition and measured after 1.5 hrs by Western blot analysis; format: cell-based
[19] = tested on: A549; test: Cell cycle arrest in human A549 cells assessed as accumulation at G0/G1 phase at 275 nM after 20 hrs by propidium iodide staining based flow cytometry (reference value: 66 +/- 1%); format: functional
[20] = tested on: HMEC-1; test: Vascular disruptive activity in HMEC1 cells assessed as disruption of preformed tubular networks after 4 hrs by matrigel based assay; format: functional, cell-based; conditions: Homo sapiens
[21] = tested on: A549; test: Cell cycle arrest in human A549 cells assessed as accumulation at sub-G0 phase at 90 nM after 20 hrs by propidium iodide staining based flow cytometry (reference value: 6.6 +/- 0.1%); format: functional
[22] = tested on: A549; test: Cell cycle arrest in human A549 cells assessed as accumulation at G2/M phase at 90 nM after 20 hrs by propidium iodide staining based flow cytometry (reference value: 11 +/- 1%); format: functional
[23] = tested on: A549; test: Cell cycle arrest in human A549 cells assessed as accumulation at G0/G1 phase at 90 nM after 20 hrs by propidium iodide staining based flow cytometry (reference value: 66 +/- 1%); format: functional
[24] = tested on: A549; test: Cell cycle arrest in human A549 cells assessed as accumulation at S phase at 90 nM after 20 hrs by propidium iodide staining based flow cytometry (reference value: 16 +/- 1%); format: functional
[25] = tested on: A549; test: Cell cycle arrest in human A549 cells assessed as accumulation at sub-G0 phase at 750 nM after 20 hrs by propidium iodide staining based flow cytometry (reference value: 6.6 +/- 0.1%); format: functional
[26] = tested on: A549; test: Cell cycle arrest in human A549 cells assessed as accumulation at S phase at 750 nM after 20 hrs by propidium iodide staining based flow cytometry (reference value: 16 +/- 1%); format: functional
[27] = tested on: A549; test: Cell cycle arrest in human A549 cells assessed as accumulation at G2/M phase at 750 nM after 20 hrs by propidium iodide staining based flow cytometry (reference value: 11 +/- 1%); format: functional
[28] = tested on: A549; test: Cell cycle arrest in human A549 cells assessed as accumulation at G0/G1 phase at 750 nM after 20 hrs by propidium iodide staining based flow cytometry (reference value: 66 +/- 1%); format: functional
[29] = tested on: A549; test: Cell cycle arrest in human A549 cells assessed as accumulation at sub-G0 phase at 230 nM after 20 hrs by propidium iodide staining based flow cytometry (reference value: 6.6 +/- 0.1%); format: functional
[30] = tested on: A549; test: Cell cycle arrest in human A549 cells assessed as accumulation at G2/M phase at 230 nM after 20 hrs by propidium iodide staining based flow cytometry (reference value: 11 +/- 1%); format: functional
[31] = tested on: A549; test: Cell cycle arrest in human A549 cells assessed as accumulation at G0/G1 phase at 230 nM after 20 hrs by propidium iodide staining based flow cytometry (reference value: 66 +/- 1%); format: functional
[32] = tested on: A549; test: Cell cycle arrest in human A549 cells assessed as accumulation at S phase at 230 nM after 20 hrs by propidium iodide staining based flow cytometry (reference value: 16 +/- 1%); format: functional
[33] = tested on: A549; test: Cell cycle arrest in human A549 cells assessed as accumulation at G0/G1 phase at 135 nM after 20 hrs by propidium iodide staining based flow cytometry (reference value: 66 +/- 1%); format: functional
[34] = tested on: A549; test: Cell cycle arrest in human A549 cells assessed as accumulation at G2/M phase at 135 nM after 20 hrs by propidium iodide staining based flow cytometry (reference value: 11 +/- 1%); format: functional
[35] = Selectivity index, ratio of IC50 for antiproliferative activity against HEK293 cells to IC50 for antiproliferative activity against human HeLa cells; format: toxicity, cell-based; conditions: HEK293 cells versus HeLa cells, read-out: Ratio IC50
[36] = tested on: A549; test: Cell cycle arrest in human A549 cells assessed as accumulation at sub-G0 phase at 135 nM after 20 hrs by propidium iodide staining based flow cytometry (reference value: 6.6 +/- 0.1%); format: functional
[37] = Selectivity index, ratio of IC50 for antiproliferative activity against HEK293 cells to IC50 for antiproliferative activity against human HT-29 cells; format: toxicity, cell-based; conditions: HEK293 cells versus HT-29 cells, read-out: Ratio IC50
[38] = tested on: A549; test: Cell cycle arrest in human A549 cells assessed as accumulation at S phase at 135 nM after 20 hrs by propidium iodide staining based flow cytometry (reference value: 16 +/- 1%); format: functional
[39] = Selectivity index, ratio of IC50 for antiproliferative activity against HEK293 cells to IC50 for antiproliferative activity against human HL60 cells; format: toxicity, cell-based; conditions: HEK293 cells versus HL60 cells, read-out: Ratio IC50
[40] = Selectivity index, ratio of IC50 for antiproliferative activity against HEK293 cells to IC50 for antiproliferative activity against human MCF7 cells; format: toxicity, cell-based; conditions: HEK293 cells versus MCF7 cells, read-out: Ratio IC50
[41] = tested on: A549; test: Cell cycle arrest in human A549 cells assessed as accumulation at S phase at 1500 nM after 20 hrs by propidium iodide staining based flow cytometry (reference value: 16 +/- 1%); format: functional
[42] = tested on: MDA-MB-231; test: Inhibition of EBI binding to beta-tubulin colchicine binding site in human MDA-MB-231 cells at 100 uM preincubated for 16 hrs followed by EBI addition and measured after 1.5 hrs by Western blot analysis; format: cell-based
[43] = tested on: A549; test: Cell cycle arrest in human A549 cells assessed as accumulation at G0/G1 phase at 1500 nM after 20 hrs by propidium iodide staining based flow cytometry (reference value: 66 +/- 1%); format: functional
[44] = tested on: A549; test: Cell cycle arrest in human A549 cells assessed as accumulation at sub-G0 phase at 1500 nM after 20 hrs by propidium iodide staining based flow cytometry (reference value: 6.6 +/- 0.1%); format: functional
[45] = tested on: A549; test: Cell cycle arrest in human A549 cells assessed as accumulation at G2/M phase at 1500 nM after 20 hrs by propidium iodide staining based flow cytometry (reference value: 11 +/- 1%); format: functional
[46] = tested on: A549; test: Cell cycle arrest in human A549 cells assessed as accumulation at sub-G0 phase at 2000 nM after 20 hrs by propidium iodide staining based flow cytometry (reference value: 6.6 +/- 0.1%); format: functional
[47] = tested on: A549; test: Cell cycle arrest in human A549 cells assessed as accumulation at G0/G1 phase at 2000 nM after 20 hrs by propidium iodide staining based flow cytometry (reference value: 66 +/- 1%); format: functional
[48] = tested on: A549; test: Cell cycle arrest in human A549 cells assessed as accumulation at G2/M phase at 2000 nM after 20 hrs by propidium iodide staining based flow cytometry (reference value: 11 +/- 1%); format: functional
[49] = tested on: A549; test: Cell cycle arrest in human A549 cells assessed as accumulation at G2/M phase at 450 nM after 20 hrs by propidium iodide staining based flow cytometry (reference value: 11 +/- 1%); format: functional
[50] = tested on: A549; test: Cell cycle arrest in human A549 cells assessed as accumulation at sub-G0 phase at 450 nM after 20 hrs by propidium iodide staining based flow cytometry (reference value: 6.6 +/- 0.1%); format: functional
[51] = tested on: A549; test: Cell cycle arrest in human A549 cells assessed as accumulation at G0/G1 phase at 450 nM after 20 hrs by propidium iodide staining based flow cytometry (reference value: 66 +/- 1%); format: functional
[52] = tested on: A549; test: Cell cycle arrest in human A549 cells assessed as accumulation at S phase at 450 nM after 20 hrs by propidium iodide staining based flow cytometry (reference value: 16 +/- 1%); format: functional

IC50 [1] [nM]	IC50 [4] [nM]	IC50 [5] [nM]	IC50 [6] [nM]	IC50 [12] [nM]	IC50 [13] [nM]	Compound	IC50 [11] [nM]	IC50 [14] [nM]	other results
6.7	13.7	15	44	16	110	COc1ccc(/C=C\c2cc(OC)c(OC)c(OC)c2)cc1NC(=O)Oc1ccccc1C(F)(F)F	19	4.1	Activity [2]: 44%; Activity [3]: Active; Activity [7]: 21%; Activity [8]: 15%; Activity [9]: Active; Activity [10]: 20%
50	69	200	230	350	550	COc1ccc(OC(=O)Nc2cc(/C=C\c3cc(OC)c(OC)c(OC)c3)ccc2OC)cc1	120	130	Activity [15]: 14%; Activity [16]: 14%; Activity [17]: 46%; inhibition [18]: Active; Activity [19]: 25%; Activity [20]: Dose-dependent effect
3	13.4	2.6	18.9	7.5	180	COc1ccc(/C=C\c2cc(OC)c(OC)c(OC)c2)cc1NC(=O)Oc1ccccc1Br	22	8	Activity [21]: 17%; Activity [22]: 44%; Activity [23]: 29%; Activity [24]: 10%
52	14	370	200	270	1500	COc1ccc(/C=C\c2cc(OC)c(OC)c(OC)c2)cc1NC(=O)Oc1ccc(C)cc1	160	144	Activity [25]: 27%; Activity [26]: 16%; Activity [27]: 32%; Activity [28]: 24%
222	21	50	380	160	460	COc1ccc(/C=C\c2cc(OC)c(OC)c(OC)c2)cc1NC(=O)Oc1ccccc1C	55	60	Activity [29]: 16%; Activity [30]: 40%; Activity [31]: 31%; Activity [32]: 13%
40	21.5	21	9.2	27.6	270	COc1ccc(/C=C\c2cc(OC)c(OC)c(OC)c2)cc1NC(=O)Oc1ccc(C(F)(F)F)cc1	30	57	Activity [33]: 22%; Activity [34]: 39%; selectivity ratio [35]: 2 to 11; Activity [36]: 26%; selectivity ratio [37]: 2 to 11; Activity [38]: 14%; selectivity ratio [39]: 2 to 11; selectivity ratio [40]: 2 to 11
350	> 100	348	230	290	3000	COc1ccc(/C=C\c2cc(OC)c(OC)c(OC)c2)cc1NC(=O)Oc1ccccc1OC	400	160	Activity [41]: 12%; inhibition [42]: Active; Activity [43]: 29%; Activity [44]: 17%; Activity [20]: Dose-dependent effect; Activity [45]: 43%
470	76	320	440	600	3900	COc1ccc(/C=C\c2cc(OC)c(OC)c(OC)c2)cc1NC(=O)Oc1c(C)cccc1C	380	490	Activity [46]: 23%; Activity [47]: 25%; Activity [48]: 35%
59	66	40	16	175	900	COc1ccc(/C=C\c2cc(OC)c(OC)c(OC)c2)cc1NC(=O)Oc1cccc(C)c1C	140	80	Activity [49]: 42%; Activity [50]: 12%; Activity [51]: 24%; Activity [52]: 22%
